Experimental data published in PMC3639963, “A New Class of Small Molecule Inhibitor of BMP Signaling” (PLoS ONE, 2013).

Key:
Assay in all cases: Nanosyn kinase profiling
Assay type in all cases: biochemical
Conditions in all cases: read-out: Percentage inhibition; for inhibition at 0.1 µM: 0.1 µM inhibitor; for inhibition at 1 µM: 1 µM inhibitor
[1] = target: T1, CAMK4 (Homo sapiens, UniProt Q16566)
T1 construct: purchased Nanosyn (enzymatic panel); SGC in-house recombinant human kinases (DSF panel); Invitrogen (ALK1-6)
T1 sequence (Q16566 1-473): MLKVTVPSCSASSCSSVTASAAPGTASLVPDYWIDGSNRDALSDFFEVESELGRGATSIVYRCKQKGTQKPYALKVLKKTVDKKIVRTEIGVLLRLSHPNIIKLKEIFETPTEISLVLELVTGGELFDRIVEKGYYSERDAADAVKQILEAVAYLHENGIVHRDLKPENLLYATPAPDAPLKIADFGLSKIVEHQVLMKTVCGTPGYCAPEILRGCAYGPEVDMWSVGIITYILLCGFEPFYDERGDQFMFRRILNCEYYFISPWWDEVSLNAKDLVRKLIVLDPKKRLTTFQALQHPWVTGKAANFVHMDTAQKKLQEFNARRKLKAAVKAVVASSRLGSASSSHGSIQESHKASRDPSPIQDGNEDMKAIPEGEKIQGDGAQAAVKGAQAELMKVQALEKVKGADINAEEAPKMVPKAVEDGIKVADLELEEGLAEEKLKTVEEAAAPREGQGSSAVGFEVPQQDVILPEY
Outline: (§1)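 Percent inhibition of each kinase was measured with the inhibitor at 0.1 µM and at 1 µM, as part of a 200-kinase human selectivity panel.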

[2] = target: T2, EGFR (Homo sapiens, UniProt P00533)
T2 construct: purchased Nanosyn (enzymatic panel); SGC in-house recombinant human kinases (DSF panel); Invitrogen (ALK1-6)
T2 sequence (P00533 25-1210): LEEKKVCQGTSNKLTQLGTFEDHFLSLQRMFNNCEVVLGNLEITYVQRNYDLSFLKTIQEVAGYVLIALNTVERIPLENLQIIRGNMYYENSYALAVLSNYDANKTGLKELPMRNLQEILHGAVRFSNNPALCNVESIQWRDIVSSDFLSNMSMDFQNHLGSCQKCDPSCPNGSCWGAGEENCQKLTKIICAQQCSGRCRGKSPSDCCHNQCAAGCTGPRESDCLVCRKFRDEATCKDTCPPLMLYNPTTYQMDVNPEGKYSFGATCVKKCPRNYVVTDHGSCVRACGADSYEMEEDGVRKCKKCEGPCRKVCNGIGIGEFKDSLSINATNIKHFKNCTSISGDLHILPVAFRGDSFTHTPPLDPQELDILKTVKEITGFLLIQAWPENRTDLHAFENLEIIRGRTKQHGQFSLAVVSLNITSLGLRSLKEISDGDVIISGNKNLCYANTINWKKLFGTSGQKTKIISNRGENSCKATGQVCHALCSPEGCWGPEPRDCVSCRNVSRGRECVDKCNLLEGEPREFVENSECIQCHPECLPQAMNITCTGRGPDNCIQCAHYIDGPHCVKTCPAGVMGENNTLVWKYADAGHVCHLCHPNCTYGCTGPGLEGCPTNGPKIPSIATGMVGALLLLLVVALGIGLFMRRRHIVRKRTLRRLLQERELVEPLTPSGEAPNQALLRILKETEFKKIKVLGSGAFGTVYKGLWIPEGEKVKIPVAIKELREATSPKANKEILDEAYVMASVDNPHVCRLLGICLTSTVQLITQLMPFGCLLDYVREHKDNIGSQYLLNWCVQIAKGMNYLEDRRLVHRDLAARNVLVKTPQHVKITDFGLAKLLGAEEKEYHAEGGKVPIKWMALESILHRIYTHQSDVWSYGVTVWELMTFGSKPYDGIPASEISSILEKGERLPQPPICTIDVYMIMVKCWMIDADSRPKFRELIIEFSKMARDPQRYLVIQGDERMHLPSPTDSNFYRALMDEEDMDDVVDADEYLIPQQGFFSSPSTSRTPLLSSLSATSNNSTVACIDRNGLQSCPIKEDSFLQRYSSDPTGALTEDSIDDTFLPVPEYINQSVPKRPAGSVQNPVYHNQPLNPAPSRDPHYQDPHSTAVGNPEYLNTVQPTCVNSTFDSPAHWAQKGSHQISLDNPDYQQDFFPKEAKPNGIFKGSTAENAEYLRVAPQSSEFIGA
Outline: as §1

[3] = target: T3, IRAK4 (Homo sapiens, UniProt Q9NWZ3)
T3 construct: purchased Nanosyn (enzymatic panel); SGC in-house recombinant human kinases (DSF panel); Invitrogen (ALK1-6)
T3 sequence (Q9NWZ3 1-460): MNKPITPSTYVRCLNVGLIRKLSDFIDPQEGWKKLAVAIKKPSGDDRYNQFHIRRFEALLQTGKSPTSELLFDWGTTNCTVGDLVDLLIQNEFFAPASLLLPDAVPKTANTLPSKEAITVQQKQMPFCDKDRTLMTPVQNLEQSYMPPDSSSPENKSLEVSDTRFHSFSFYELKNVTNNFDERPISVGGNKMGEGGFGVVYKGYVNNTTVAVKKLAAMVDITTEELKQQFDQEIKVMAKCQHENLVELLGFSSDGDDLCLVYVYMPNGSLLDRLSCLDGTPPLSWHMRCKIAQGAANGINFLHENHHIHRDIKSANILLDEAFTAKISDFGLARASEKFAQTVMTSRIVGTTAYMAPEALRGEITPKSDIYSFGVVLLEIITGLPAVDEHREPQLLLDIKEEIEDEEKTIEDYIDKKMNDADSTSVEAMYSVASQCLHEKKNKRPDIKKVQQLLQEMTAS
Outline: as §1

[4] = target: T4, JAK1 (Homo sapiens, UniProt P23458)
T4 construct: purchased Nanosyn (enzymatic panel); SGC in-house recombinant human kinases (DSF panel); Invitrogen (ALK1-6)
T4 sequence (P23458 whole entry): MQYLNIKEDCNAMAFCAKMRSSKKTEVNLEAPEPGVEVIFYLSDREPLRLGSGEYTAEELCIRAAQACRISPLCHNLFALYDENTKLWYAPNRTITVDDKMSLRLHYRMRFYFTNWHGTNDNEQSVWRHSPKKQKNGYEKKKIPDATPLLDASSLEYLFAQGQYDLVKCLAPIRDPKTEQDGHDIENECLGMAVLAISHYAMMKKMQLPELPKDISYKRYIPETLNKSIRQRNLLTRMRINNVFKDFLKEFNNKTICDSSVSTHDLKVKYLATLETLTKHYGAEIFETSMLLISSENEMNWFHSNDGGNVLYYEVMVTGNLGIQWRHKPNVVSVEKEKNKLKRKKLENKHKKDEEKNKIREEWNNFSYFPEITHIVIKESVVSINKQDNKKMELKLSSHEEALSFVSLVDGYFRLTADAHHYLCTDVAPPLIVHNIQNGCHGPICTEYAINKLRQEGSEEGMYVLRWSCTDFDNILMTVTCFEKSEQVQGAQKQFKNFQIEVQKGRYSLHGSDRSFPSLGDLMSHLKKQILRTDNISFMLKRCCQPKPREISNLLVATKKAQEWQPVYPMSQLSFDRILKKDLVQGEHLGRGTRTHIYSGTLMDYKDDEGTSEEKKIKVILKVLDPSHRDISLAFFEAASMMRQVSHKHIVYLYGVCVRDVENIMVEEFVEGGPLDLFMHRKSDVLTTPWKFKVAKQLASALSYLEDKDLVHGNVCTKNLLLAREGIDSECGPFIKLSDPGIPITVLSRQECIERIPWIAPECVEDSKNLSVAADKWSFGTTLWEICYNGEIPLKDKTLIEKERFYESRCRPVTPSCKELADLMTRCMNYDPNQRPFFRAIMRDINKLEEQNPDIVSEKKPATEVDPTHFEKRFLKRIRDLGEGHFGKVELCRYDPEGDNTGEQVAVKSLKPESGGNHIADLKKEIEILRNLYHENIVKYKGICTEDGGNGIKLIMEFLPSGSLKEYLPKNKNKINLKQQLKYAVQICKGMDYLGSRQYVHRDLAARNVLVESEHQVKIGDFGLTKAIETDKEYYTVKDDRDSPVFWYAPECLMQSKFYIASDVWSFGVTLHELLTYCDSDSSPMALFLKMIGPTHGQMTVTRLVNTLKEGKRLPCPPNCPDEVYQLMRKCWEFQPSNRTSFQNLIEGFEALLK
Outline: as §1

[5] = target: T5, LCK (Homo sapiens, UniProt P06239)
T5 construct: purchased Nanosyn (enzymatic panel); SGC in-house recombinant human kinases (DSF panel); Invitrogen (ALK1-6)
Outline: as §1

[6] = target: T6, MAP4K2 (Homo sapiens, UniProt Q12851)
T6 construct: purchased Nanosyn (enzymatic panel); SGC in-house recombinant human kinases (DSF panel); Invitrogen (ALK1-6)
T6 sequence (Q12851 1-820): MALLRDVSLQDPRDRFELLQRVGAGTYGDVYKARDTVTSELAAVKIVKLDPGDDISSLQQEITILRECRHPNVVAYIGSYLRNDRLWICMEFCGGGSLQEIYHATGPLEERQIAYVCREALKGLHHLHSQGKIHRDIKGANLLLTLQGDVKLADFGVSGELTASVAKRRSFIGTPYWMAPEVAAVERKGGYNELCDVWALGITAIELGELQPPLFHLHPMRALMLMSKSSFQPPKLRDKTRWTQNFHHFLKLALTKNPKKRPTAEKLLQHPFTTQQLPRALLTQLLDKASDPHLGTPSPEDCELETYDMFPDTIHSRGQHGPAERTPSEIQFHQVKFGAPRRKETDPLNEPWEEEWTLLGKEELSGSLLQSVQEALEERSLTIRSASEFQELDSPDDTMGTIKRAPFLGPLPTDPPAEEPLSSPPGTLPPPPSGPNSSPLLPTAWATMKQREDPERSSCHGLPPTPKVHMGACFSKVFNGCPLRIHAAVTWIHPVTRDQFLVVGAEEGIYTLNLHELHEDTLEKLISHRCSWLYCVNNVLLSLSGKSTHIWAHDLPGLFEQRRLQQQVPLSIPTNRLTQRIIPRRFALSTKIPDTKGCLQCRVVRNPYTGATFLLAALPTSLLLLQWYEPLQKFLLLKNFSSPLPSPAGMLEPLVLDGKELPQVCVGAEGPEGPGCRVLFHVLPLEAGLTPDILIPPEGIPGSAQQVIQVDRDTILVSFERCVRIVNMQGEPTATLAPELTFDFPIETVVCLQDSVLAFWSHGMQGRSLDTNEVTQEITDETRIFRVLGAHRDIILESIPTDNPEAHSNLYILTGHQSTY
Outline: as §1

[7] = target: T7, MARK1 (Homo sapiens, UniProt Q9P0L2)
T7 construct: purchased Nanosyn (enzymatic panel); SGC in-house recombinant human kinases (DSF panel); Invitrogen (ALK1-6)
Outline: as §1

[8] = target: T8, PIM3 (Homo sapiens, UniProt Q86V86)
T8 construct: purchased Nanosyn (enzymatic panel); SGC in-house recombinant human kinases (DSF panel); Invitrogen (ALK1-6)
Outline: as §1

[9] = target: T9, PKCη (Homo sapiens, UniProt P24723)
T9 construct: purchased Nanosyn (enzymatic panel); SGC in-house recombinant human kinases (DSF panel); Invitrogen (ALK1-6)
T9 sequence (P24723 whole entry): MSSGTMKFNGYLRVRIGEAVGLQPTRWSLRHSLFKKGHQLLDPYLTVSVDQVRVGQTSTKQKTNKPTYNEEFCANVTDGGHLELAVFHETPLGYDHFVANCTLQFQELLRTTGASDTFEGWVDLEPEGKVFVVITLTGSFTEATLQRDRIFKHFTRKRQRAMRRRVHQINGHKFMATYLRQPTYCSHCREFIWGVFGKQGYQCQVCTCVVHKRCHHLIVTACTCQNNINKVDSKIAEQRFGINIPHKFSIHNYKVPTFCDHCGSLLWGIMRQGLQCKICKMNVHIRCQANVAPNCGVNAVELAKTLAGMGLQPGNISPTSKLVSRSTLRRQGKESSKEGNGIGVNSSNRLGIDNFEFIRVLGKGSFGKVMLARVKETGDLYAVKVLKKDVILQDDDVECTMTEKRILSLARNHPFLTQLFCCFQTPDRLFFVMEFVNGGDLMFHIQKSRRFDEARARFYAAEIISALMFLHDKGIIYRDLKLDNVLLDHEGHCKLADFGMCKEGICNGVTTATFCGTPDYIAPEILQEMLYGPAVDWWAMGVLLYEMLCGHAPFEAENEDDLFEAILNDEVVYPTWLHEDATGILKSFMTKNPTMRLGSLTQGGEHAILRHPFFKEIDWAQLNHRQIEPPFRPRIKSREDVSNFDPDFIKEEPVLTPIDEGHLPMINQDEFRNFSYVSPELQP
Outline: as §1

[10] = target: T10, ROCK2 (Homo sapiens, UniProt O75116)
T10 construct: purchased Nanosyn (enzymatic panel); SGC in-house recombinant human kinases (DSF panel); Invitrogen (ALK1-6)
T10 sequence (O75116 whole entry): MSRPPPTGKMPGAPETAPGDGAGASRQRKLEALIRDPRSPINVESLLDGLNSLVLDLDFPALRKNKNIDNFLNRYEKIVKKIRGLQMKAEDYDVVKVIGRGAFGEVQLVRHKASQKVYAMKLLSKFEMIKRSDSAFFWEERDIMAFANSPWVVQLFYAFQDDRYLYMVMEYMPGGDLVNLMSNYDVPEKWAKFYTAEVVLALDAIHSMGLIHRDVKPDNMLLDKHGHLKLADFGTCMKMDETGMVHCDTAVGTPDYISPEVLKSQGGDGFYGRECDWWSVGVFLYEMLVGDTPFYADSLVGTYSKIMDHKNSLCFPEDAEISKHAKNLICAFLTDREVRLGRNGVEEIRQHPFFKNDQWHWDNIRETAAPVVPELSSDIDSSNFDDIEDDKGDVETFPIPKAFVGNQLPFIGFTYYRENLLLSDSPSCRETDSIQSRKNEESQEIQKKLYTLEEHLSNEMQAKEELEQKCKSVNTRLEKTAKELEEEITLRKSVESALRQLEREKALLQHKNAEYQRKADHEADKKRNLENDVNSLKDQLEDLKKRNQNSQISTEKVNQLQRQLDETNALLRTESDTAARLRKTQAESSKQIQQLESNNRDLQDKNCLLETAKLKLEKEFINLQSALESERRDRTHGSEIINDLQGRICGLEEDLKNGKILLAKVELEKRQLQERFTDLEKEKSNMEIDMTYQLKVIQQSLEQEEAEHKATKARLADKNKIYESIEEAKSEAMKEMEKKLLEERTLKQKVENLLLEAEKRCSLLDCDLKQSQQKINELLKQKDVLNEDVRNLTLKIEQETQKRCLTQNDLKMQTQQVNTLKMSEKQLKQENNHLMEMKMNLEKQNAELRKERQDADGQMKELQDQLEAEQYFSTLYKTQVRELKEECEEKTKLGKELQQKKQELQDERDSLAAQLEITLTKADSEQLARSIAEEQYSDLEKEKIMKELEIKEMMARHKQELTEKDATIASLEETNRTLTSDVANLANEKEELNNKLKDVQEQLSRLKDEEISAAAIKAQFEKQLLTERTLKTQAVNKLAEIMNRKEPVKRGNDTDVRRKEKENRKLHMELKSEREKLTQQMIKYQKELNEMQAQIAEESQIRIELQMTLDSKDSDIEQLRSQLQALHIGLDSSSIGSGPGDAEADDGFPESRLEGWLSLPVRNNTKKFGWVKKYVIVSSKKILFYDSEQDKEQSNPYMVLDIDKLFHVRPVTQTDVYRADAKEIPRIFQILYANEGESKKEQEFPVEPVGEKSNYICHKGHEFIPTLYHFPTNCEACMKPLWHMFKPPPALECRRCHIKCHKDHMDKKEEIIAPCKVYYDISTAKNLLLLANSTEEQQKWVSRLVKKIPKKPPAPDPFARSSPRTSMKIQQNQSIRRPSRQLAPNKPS
Outline: as §1

[11] = target: T11, TSSK1 (Homo sapiens, UniProt Q9BXA7)
T11 construct: purchased Nanosyn (enzymatic panel); SGC in-house recombinant human kinases (DSF panel); Invitrogen (ALK1-6)
T11 sequence (Q9BXA7 1-367): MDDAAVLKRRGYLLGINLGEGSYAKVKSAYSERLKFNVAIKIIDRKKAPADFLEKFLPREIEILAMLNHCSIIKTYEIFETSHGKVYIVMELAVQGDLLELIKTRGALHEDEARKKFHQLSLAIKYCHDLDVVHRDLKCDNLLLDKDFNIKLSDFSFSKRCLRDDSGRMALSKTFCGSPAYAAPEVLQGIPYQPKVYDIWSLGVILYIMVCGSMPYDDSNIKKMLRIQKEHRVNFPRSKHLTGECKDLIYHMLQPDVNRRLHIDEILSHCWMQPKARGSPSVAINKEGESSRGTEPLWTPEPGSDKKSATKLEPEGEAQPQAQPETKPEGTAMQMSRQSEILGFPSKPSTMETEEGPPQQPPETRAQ
Outline: as §1

Compound | inhibition at 0.1 µM [1] [%] | inhibition at 1 µM [1] [%] | inhibition at 0.1 µM [2] [%] | inhibition at 1 µM [2] [%] | inhibition at 0.1 µM [3] [%] | inhibition at 1 µM [3] [%] | inhibition at 0.1 µM [4] [%] | inhibition at 1 µM [4] [%] | inhibition at 0.1 µM [5] [%] | inhibition at 1 µM [5] [%] | inhibition at 0.1 µM [6] [%] | inhibition at 1 µM [6] [%] | inhibition at 0.1 µM [7] [%] | inhibition at 1 µM [7] [%] | inhibition at 0.1 µM [8] [%] | inhibition at 1 µM [8] [%] | inhibition at 0.1 µM [9] [%] | inhibition at 1 µM [9] [%] | inhibition at 0.1 µM [10] [%] | inhibition at 1 µM [10] [%] | further results
COc1cc(-c2cc(-c3cccc(O)c3)cnc2N)cc(OC)c1OC [K02288, 3-[6-amino-5-(3,4,5-trimethoxy-phenyl)-pyridin-3-yl]-phenol] | -1 | -1 | 2.4 | 12 | -1 | 0.3 | 0 | 0.4 | 13 | 58 | 18 | 53 | 1.3 | 4.5 | 2.3 | 5.9 | -2 | -4 | -1 | 0.8 | inhibition at 0.1 µM [11]: -1%; inhibition at 1 µM [11]: -2%
c1ccc2c(-c3cnn4cc(-c5ccc(N6CCNCC6)cc5)cnc34)ccnc2c1 [LDN-193189] | 0.1 | 0 | 1.5 | 4.8 | 0.7 | 1.9 | 2.7 | 4.2 | 12 | 46 | 21 | 65 | 13 | 62 | 2 | -1 | 2.2 | -2 | 1.4 | 1.5 | inhibition at 0.1 µM [11]: 3.5%; inhibition at 1 µM [11]: 5.2%
